# Data: US20040038910A1, “Remedy for diabetes mellitus” (priority 2000, published 2004)
# Key:
# [1] = tested on: model mice for non-insulin-depending diabetes mellitus (KK-A^y); assay: Blood-sugar level of KK-A^y diabetic model mice fed test feed for 30 days; format: in vivo; conditions: group D, feed D (2.5% L-arabinose, no sucrose) ad libitum, FIG. 2
# Protocol: Twenty model mice for non-insulin-depending diabetes mellitus showing hyperglycemia (260˜270 mg/liter) (KK-A^y, male, 8 weeks age, Nippon Clair) were preliminarily raised for one week, divided into two groups (group A and group B) and used for the test. Each of the mice was placed in a plastic cage separately and raised by keeping at 23±1° C. under a 12-hour bright-and-dark cycle (bright environment from 7 a.m. to 7 p.m. and dark environment from 7 p.m. to 7 a.m. of the next day) where feed and water were freely taken by the mice. Blood-sugar level (concentration of glucose in blood) was measured by a glucose oxidase method after collecting the blood from the venous plexus of the eyeground at 9 a.m.
# The feed A mentioned in Table 1 (a feed containing α-corn starch, sucrose, and cellulose as carbohydrate sources but containing no L-arabinose) was given to the mice of group A while the feed B mentioned in Table 1 (a feed containing α-com starch, sucrose, and cellulose as carbohydrate sources and also containing L-arabinose) was given to the mice of group B and the study was carried out for 30 days. […]
# [2] = molecular target: sucrase (Homo sapiens, UniProt P14410); conditions: sucrose-decomposing enzyme in the small intestine; cited from earlier work
# [3] = tested on: mice; conditions: 30 to 120 minutes after loading with sucrose; cited from earlier work
# Sequence of sucrase (P14410 whole entry, species assumed): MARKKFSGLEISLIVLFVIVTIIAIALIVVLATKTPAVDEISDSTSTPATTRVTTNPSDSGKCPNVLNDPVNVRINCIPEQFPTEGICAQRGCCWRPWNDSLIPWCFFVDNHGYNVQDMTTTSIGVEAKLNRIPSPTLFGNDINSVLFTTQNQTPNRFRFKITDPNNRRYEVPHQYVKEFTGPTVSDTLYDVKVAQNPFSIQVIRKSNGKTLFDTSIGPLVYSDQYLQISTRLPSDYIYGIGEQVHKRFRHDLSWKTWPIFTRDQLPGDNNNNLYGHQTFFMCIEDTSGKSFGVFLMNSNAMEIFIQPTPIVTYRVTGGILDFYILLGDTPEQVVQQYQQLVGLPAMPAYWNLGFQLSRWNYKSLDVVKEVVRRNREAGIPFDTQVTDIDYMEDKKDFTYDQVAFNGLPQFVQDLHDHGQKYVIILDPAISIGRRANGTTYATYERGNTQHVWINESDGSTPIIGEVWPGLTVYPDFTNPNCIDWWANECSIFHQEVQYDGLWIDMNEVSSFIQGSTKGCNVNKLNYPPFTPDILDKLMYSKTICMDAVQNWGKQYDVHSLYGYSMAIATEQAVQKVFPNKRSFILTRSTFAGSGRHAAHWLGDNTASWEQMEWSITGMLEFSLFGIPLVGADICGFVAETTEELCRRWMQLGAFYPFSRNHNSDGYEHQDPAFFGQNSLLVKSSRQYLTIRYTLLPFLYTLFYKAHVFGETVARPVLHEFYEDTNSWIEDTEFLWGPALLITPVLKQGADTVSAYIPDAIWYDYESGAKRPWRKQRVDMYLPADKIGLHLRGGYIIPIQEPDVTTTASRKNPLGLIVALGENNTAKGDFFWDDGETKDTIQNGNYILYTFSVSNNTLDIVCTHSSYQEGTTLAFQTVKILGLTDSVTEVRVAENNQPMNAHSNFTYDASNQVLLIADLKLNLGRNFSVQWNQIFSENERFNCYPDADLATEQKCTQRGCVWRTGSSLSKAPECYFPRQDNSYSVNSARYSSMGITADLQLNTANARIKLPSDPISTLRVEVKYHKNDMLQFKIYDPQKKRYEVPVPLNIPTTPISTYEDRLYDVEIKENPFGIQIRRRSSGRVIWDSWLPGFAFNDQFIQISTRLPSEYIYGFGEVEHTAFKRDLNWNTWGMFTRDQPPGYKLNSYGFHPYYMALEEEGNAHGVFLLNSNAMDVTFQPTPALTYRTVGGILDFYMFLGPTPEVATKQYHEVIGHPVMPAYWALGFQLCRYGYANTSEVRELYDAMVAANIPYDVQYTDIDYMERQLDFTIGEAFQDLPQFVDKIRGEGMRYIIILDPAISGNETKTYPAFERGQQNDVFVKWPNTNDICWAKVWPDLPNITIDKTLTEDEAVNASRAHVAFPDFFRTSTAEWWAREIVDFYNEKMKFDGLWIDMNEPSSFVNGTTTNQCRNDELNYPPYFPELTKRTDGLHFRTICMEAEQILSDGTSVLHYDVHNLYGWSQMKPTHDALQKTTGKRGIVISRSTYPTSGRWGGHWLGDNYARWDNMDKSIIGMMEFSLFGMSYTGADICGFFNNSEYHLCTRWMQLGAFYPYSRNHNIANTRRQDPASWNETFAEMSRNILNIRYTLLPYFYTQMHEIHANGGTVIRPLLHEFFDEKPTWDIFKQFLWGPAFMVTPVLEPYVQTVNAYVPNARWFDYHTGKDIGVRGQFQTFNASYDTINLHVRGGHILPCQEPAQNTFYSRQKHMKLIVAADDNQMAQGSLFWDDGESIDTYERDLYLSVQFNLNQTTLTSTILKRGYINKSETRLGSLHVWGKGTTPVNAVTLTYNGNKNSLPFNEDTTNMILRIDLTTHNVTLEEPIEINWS
smiles,measurement,setting,value
O=C[C@H](O)[C@@H](O)[C@@H](O)CO [L-arabinose],"change in blood-sugar level, L-arabinose without sucrose",[1],no decrease in blood-sugar level takes place
same,action on sucrase,[2],inhibition of sucrase
same,rise of blood-sugar level after loading with sucrose,[3],suppressing the rise of blood-sugar level
